Columns and labels:
[1] = molecular target: IMP-1 (Serratia marcescens, UniProt P52699); assay: Inhibition of IMP-1 catalyzed Fluorocillin hydrolysis; type: biochemical
[2] = molecular target: VIM-2 (Escherichia coli, UniProt Q5U7L7); assay: Inhibition of VIM-2 catalyzed Fluorocillin hydrolysis; type: biochemical
[3] = molecular target: T1, NDM-1 (Klebsiella pneumoniae, UniProt C7C422); assay: Inhibition of NDM-1 catalyzed Fluorocillin hydrolysis; type: biochemical
[4] = molecular target: ZnZn-NDM-1 (Klebsiella pneumoniae, UniProt C7C422); assay: Equilibrium dialysis, Zn; type: binding; settings: for Zn(II) retained by NDM-1 at highest tested concentration: 128 μM compound; for Inhibition mechanism against NDM-1: from equilibrium dialysis and UV-vis of CoCo-NDM-1; for Zn(II) removal from NDM-1 in equilibrium dialysis: NDM-1 8 μM, compound 16 - 128 μM; for Zn(II) removal from NDM-1 at 32 μM compound: Figure S2
[5] = molecular target: T1, NDM-1; assay: Inhibition of NDM-1 catalyzed meropenem hydrolysis; type: biochemical
[6] = molecular target: T1, NDM-1; settings: meropenem as substrate of NDM-1
[7] = molecular target: T1, NDM-1; settings: read-out: KM, NDM-1; Fluorocillin as substrate; ref [28], [43]; cited from earlier work

ZnZn-NDM-1, sequence (C7C422 29-270, looked up): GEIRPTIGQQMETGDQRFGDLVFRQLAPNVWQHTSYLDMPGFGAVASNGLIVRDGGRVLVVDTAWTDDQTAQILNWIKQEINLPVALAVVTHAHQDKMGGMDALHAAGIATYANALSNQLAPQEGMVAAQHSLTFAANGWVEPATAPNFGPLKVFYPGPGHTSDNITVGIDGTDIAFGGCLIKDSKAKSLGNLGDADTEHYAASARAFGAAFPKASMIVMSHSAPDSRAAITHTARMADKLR
T1 sequence (C7C422 29-270 limits assumed): as the sequence (C7C422 29-270, looked up) above
IMP-1, sequence (P52699 19-246, species assumed): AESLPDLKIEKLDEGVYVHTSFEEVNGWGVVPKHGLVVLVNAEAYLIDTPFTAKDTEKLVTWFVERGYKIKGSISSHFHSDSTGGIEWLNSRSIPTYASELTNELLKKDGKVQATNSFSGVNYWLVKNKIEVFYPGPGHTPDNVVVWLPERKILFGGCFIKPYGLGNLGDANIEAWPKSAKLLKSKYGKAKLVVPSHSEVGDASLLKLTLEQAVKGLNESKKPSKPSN

`O=C(O)c1cccc(P(=O)(O)O)n1` [Compound 1, 6-Phosphonopicolinic acid] showed an IC50 [1] of 850 ± 60 nM, an IC50 [2] of 850 ± 20 nM and an IC50 [3] of 64 ± 1 nM.
With `O=C(O)c1cccc(CP(=O)(O)O)n1` [Compound 2, 6-(Phosphonomethyl)picolinic acid] the IC50 [1] was 630 ± 10 nM, the “Zn(II) retained by NDM-1 at highest tested concentration” value (“Zn(II) retained” below) [4] was “less than one equivalent was retained” and the “Inhibition mechanism against NDM-1” value [4] was “primarily via Zn(II) removal”. The IC50 [2] was 620 ± 10 nM and the IC50 [3] was 68 ± 2 nM.
For `O=C(O)Cc1cccc(C(=O)O)n1` [Compound 3, 6-(Carboxymethyl)picolinic acid], the IC50 [1] was 59000 ± 5000 nM, the “Zn(II) removal from NDM-1 in equilibrium dialysis” value [4] was “removing only small amounts of Zn(II)” and the IC50 [2] was 35000 ± 1000 nM. For the same molecule, the IC50 [3] was 2050 ± 90 nM and the IC50 [5] was 7700 ± 600 nM.
For `O=C(O)c1cccc(-c2nnn[nH]2)n1` [Compound 4, 6-(1H-Tetrazol-5-yl)picolinic acid], the IC50 [1] was 22000 ± 1000 nM, the “Zn(II) removal from NDM-1 in equilibrium dialysis” value [4] was “removing only small amounts of Zn(II)” and the “Inhibition mechanism against NDM-1” value [4] was “mainly via formation of a ternary complex”. It also gave an IC50 [2] of 27000 ± 2000 nM, an IC50 [3] of 2190 ± 130 nM and an IC50 [5] of 7000 ± 500 nM. The Ki [5] was 2200 ± 500 nM.
For `O=C(O)c1cccc(CS(=O)(=O)O)n1` [Compound 5, 6-(Sulfomethyl)picolinic acid], the IC50 [5] was > 10000 nM.
For `CS(=O)(=O)Cc1cccc(C(=O)O)n1` [Compound 6, 6-((Methylsulfonyl)methyl)picolinic acid], the IC50 [5] was > 10000 nM.
In the case of `CS(=O)(=O)Nc1cccc(C(=O)O)n1` [Compound 7, 6-(Methylsulfonamido)picolinic acid], the IC50 [5] is reported as > 10000 nM.
For `CN(Cc1cccc(C(=O)O)n1)S(C)(=O)=O` [Compound 8, 6-((N-Methylmethylsulfonamido)methyl)picolinic acid], the IC50 [5] was > 10000 nM.
For `O=C(O)c1cccc(-c2nccs2)n1` [Compound 9, 6-(Thiazol-2-yl)picolinic acid], the IC50 [5] was > 10000 nM.
For `O=C(O)c1cccc(-c2ncco2)n1` [Compound 10, 6-(Oxazol-2-yl)picolinic acid], the IC50 [5] was > 10000 nM.
For `O=C(O)c1cc(-c2ccccc2)cc(CP(=O)(O)O)n1` [Compound 18a, 4-Phenyl-6-(phosphonomethyl)picolinic acid], the IC50 [5] was 410 ± 20 nM.
In the case of `COc1ccc(-c2cc(CP(=O)(O)O)nc(C(=O)O)c2)cc1` [Compound 18b, 4-(4-Methoxyphenyl)-6-(phosphonomethyl)picolinic acid], the “Zn(II) removal from NDM-1 at 32 μM compound” value [4] is reported as “only slight Zn(II) removal”, the “Zn(II) retained” value [4] is reported as “one equivalent of Zn(II) was retained” and the “Zn(II) removal from NDM-1 in equilibrium dialysis” value [4] is reported as “reduced tendency to remove Zn(II)”. It also gave an IC50 [5] of 200 ± 10 nM.
With `COc1cccc(-c2cc(CP(=O)(O)O)nc(C(=O)O)c2)c1` [Compound 18c, 4-(3-Methoxyphenyl)-6-(phosphonomethyl)picolinic acid] the IC50 [5] was 420 ± 20 nM.
Molecule `COc1ccccc1-c1cc(CP(=O)(O)O)nc(C(=O)O)c1` [Compound 18d, 4-(2-Methoxyphenyl)-6-(phosphonomethyl)picolinic acid] has an IC50 [5] of 300 ± 10 nM.
For `O=C(O)c1cc(-c2ccc(O)cc2)cc(CP(=O)(O)O)n1` [Compound 18e, 4-(4-Hydroxyphenyl)-6-(phosphonomethyl)picolinic acid], the IC50 [5] was 480 ± 10 nM.
Work on `O=C(O)c1cc(-c2cccc(O)c2)cc(CP(=O)(O)O)n1` [Compound 18f, 4-(3-Hydroxyphenyl)-6-(phosphonomethyl)picolinic acid] yielded an IC50 [5] of 280 ± 10 nM.
`O=C(O)c1cc(-c2ccccc2O)cc(CP(=O)(O)O)n1` [Compound 18g, 4-(2-Hydroxyphenyl)-6-(phosphonomethyl)picolinic acid] gave an IC50 [5] of 280 ± 10 nM.
Work on `Nc1ccc(-c2cc(CP(=O)(O)O)nc(C(=O)O)c2)cc1` [Compound 18h, 4-(4-Aminophenyl)-6-(phosphonomethyl)picolinic acid] yielded an IC50 [5] of 300 ± 10 nM.
In the case of `Nc1cccc(-c2cc(CP(=O)(O)O)nc(C(=O)O)c2)c1` [Compound 18i, 4-(3-Aminophenyl)-6-(phosphonomethyl)picolinic acid], the “Zn(II) removal from NDM-1 at 32 μM compound” value [4] is reported as “only slight Zn(II) removal”, the “Zn(II) retained” value [4] is reported as “one equivalent of Zn(II) was retained” and the “Zn(II) removal from NDM-1 in equilibrium dialysis” value [4] is reported as “reduced tendency to remove Zn(II)”. It also gave an IC50 [5] of 400 ± 20 nM.
In the case of `Nc1ccccc1-c1cc(CP(=O)(O)O)nc(C(=O)O)c1` [Compound 18j, 4-(2-Aminophenyl)-6-(phosphonomethyl)picolinic acid], the IC50 [5] is reported as 240 ± 10 nM.
`O=C(O)c1cc(-c2ccc(Cl)cc2)cc(CP(=O)(O)O)n1` [Compound 18k, 4-(4-Chlorophenyl)-6-(phosphonomethyl)picolinic acid] gave an IC50 [5] of 400 ± 10 nM.
With `O=C(O)c1cc(-c2cccc(Cl)c2)cc(CP(=O)(O)O)n1` [Compound 18l, 4-(3-Chlorophenyl)-6-(phosphonomethyl)picolinic acid] the IC50 [5] was 1290 ± 70 nM.
For `O=C(O)c1cc(-c2ccccc2Cl)cc(CP(=O)(O)O)n1` [Compound 18m, 4-(2-Chlorophenyl)-6-(phosphonomethyl)picolinic acid], the IC50 [5] was 950 ± 50 nM.
In the case of `O=C(O)c1cccc(C(=O)O)n1` [DPA, dipicolinic acid, reference compound], the “Zn(II) removal from NDM-1 in equilibrium dialysis” value [4] is reported as “significantly reduced”, the IC50 [2] is reported as 2340 ± 40 nM and the IC50 [3] is reported as 330 ± 40 nM.
With `C[C@H](CS)C(=O)N1CCC[C@H]1C(=O)O` [L-captopril, reference compound] the “Zn(II) removal from NDM-1 in equilibrium dialysis” value [4] was “did not show any evidence of Zn(II) removal”.
With `C[C@@H](O)[C@H]1C(=O)N2C(C(=O)O)=C(S[C@@H]3CN[C@H](C(=O)N(C)C)C3)[C@H](C)[C@H]12` [Meropenem, meropenem] the kcat [6] was 15.3 ± 0.4 s⁻¹.
In the case of Fluorocillin, the Km [7] is listed as 0.46 µM.

From paper PMC6609467 (ChemMedChem, 2019)
